# What was measured:
# PC-3 cells [1] = assay: WST-1 cytotoxicity in transfected PC-3 cells; type: cell-based; conditions: Homo sapiens, PC-3, read-out: % inh WST-1 (100 μM)
# [2] = Passive permeability, PAMPA Explorer Kit; type: in vitro ADME; conditions: for Log Peff: log of effective permeability, mean of n = 3; for Permeability bin (high, medium or low): ranges not printed (Ref 17)
# Kinetic solubility = type: physicochemical; conditions: for Solubility bin (high, medium or low): kinetic solubility, ranges not printed (in reference)
# PC-3 cells [3] = conditions: cited from earlier work
# mice = assay: In vivo tolerability study
# MKL1 = conditions: preliminary studies; cited from earlier work
# SK-Mel-147 cells = assay: WST-1 cytotoxicity in SK-Mel-147 cells; type: cell-based
# [4] = molecular target: Rho-pathway selective serum response element-luciferase reporter (SRE.L); conditions: read-out: IC50 (SRE.L); cited from earlier work
Log Peff [2],"Permeability bin (high, medium or low) [2]","Solubility bin (high, medium or low) (Kinetic solubility)",Compound,inhibition at 100 µM (PC-3 cells [1]),further results
–,–,–,Cc1cccc(C(=O)N2CCCC(C(=O)Nc3ccc(Cl)cc3)C2)c1 (stereo not drawn) [Compound 8h],0%,–
−4.7 ± 0.05 cm/s,MOD,LOW,O=C(Nc1cccc(Cc2ccccc2)c1)C1CCCN(C(=O)c2cc(C(F)(F)F)cc(C(F)(F)F)c2)C1 (stereo not drawn) [Compound 12b],–,–
–,–,–,O=C(Nc1ccc(Cl)cc1)C1CCCN(C(=O)c2cccc(-c3cnco3)c2)C1 (stereo not drawn) [Compound 8j],0%,–
–,–,–,COCc1cccc(C(=O)N2CCCC(C(=O)Nc3ccc(Cl)cc3)C2)c1 (stereo not drawn) [Compound 8o],0%,–
–,–,–,O=C(Nc1ccc(Cl)cc1)C1CCCN(C(=O)c2cccc([N+](=O)[O-])c2)C1 (stereo not drawn) [Compound 8s],0%,–
–,–,–,CCN(CC)S(=O)(=O)c1cccc(C(=O)N2CCCC(C(=O)Nc3ccc(Cl)cc3)C2)c1 (stereo not drawn) [Compound 8k],0%,–
–,–,–,N#Cc1cccc(C(=O)N2CCCC(C(=O)Nc3ccc(Cl)cc3)C2)c1 (stereo not drawn) [Compound 8q],0%,–
−5.1 ± 0.40 cm/s,MOD-LOW,LOW,O=C(Nc1cccc(Oc2ccccc2)c1)C1CCCN(C(=O)c2cc(C(F)(F)F)cc(C(F)(F)F)c2)C1 (stereo not drawn) [Compound 12a],–,–
–,–,–,CC(C)(C)CC(=O)Nc1cccc(C(=O)N2CCCC(C(=O)Nc3ccc(Cl)cc3)C2)c1 (stereo not drawn) [Compound 8e],0%,–
–,–,–,"CC(ONC(=O)c1cc(C(F)(F)F)cc(C(F)(F)F)c1)C(=O)Nc1ccc(Cl)cc1 (stereo not drawn) [Compound 1, reference compound]",–,Inhibition of invasion of PC-3 prostate cancer cells (PC-3 cells [3]; Matrigel model of metastasis): inhibits invasion; In vivo tolerability (toxicity) (mice; repeated dosing at 7.5 mg/kg intraperitoneally (IP)): deaths observed
−10 ± 0.00 cm/s,LOW,LOW,"O=C(Nc1ccc(Cl)cc1)C1CCCN(C(=O)c2cc(C(F)(F)F)cc(C(F)(F)F)c2)C1 (stereo not drawn) [Compound 2, reference compound]",–,Inhibition of invasion into Matrigel by cultured PC-3 cells (PC-3 cells [3]): can inhibit invasion; solubility (Kinetic solubility): < 10 µg/mL
−10 ± 0.00 cm/s,LOW,LOW,O=C(Nc1ccc(Cl)cc1)C1CCCN(C(=O)c2cccc(-c3cccs3)c2)C1 (stereo not drawn) [Compound 8u],–,–
−10 ± 0.00 cm/s,LOW,LOW,"O=C(CCNC(=O)c1cc(C(F)(F)F)cc(C(F)(F)F)c1)Nc1ccc(Cl)cc1 [Compound 19, reference compound]",–,IC50 [4]: 38 µM
–,–,–,CSc1cccc(C(=O)N2CCCC(C(=O)Nc3ccc(Cl)cc3)C2)c1 (stereo not drawn) [Compound 8i],0%,–
–,–,–,COC(=O)c1cccc(C(=O)N2CCCC(C(=O)Nc3ccc(Cl)cc3)C2)c1 (stereo not drawn) [Compound 8l],0%,–
–,–,–,COc1cccc(C(=O)N2CCCC(C(=O)Nc3ccc(Cl)cc3)C2)c1 (stereo not drawn) [Compound 8n],0%,–
–,–,–,C=Cc1cccc(C(=O)N2CCCC(C(=O)Nc3ccc(Cl)cc3)C2)c1 (stereo not drawn) [Compound 8f],0%,–
–,–,–,O=C(c1ccccc1)c1cccc(C(=O)N2CCCC(C(=O)Nc3ccc(Cl)cc3)C2)c1 (stereo not drawn) [Compound 8b],0%,–
–,–,–,Cc1nc(-c2cccc(C(=O)N3CCCC(C(=O)Nc4ccc(Cl)cc4)C3)c2)no1 (stereo not drawn) [Compound 8m],0%,–

Compound,Log Peff [2],"Permeability bin (high, medium or low) [2]","Solubility bin (high, medium or low) (Kinetic solubility)",inhibition at 100 µM (PC-3 cells [1]),further results
O=C(Nc1ccc(Cl)cc1)C1CCCN(C(=O)c2cccc(-c3ccco3)c2)C1 (stereo not drawn) [Compound 8a],−8.3 ± 2.3 cm/s,LOW,LOW,0%,"Effect on MKL1 nuclear localization (MKL1): blocks MKL1 nuclear localization; WST-1 cytotoxicity (SK-Mel-147 cells): no WST-1 cytotoxicity; Body weight over the course of the study (mice; 10, 20, 50 and 100 mg/kg/day IP, 5 days): Weight was maintained; Abnormality observed at dissection (mice; 10, 20, 50 and 100 mg/kg/day IP, 5 days, sacrifice on 8th day): slight increase in liver weight; Tolerability in mice (mice; 5 days, up to 100 mg/kg/day IP, normal mice): well tolerated"

# Reference: article PMC3707396 (Bioorganic & medicinal chemistry letters, 2013)
